Data on four compounds can be found in patent US7259188B2, “Methods and pharmaceutical compositions for treatment of anti-estrogen resistant breast cancer using RXR modulators” (priority 1998, dated 2007).

Like-named read-outs stand apart in the source and are kept apart here.

Experiment [1] relates to tamoxifen-resistant primary tumors. Briefly: Example 1: tumor response of tamoxifen-resistant NMU-induced mammary tumors. To be noted: additional six weeks; for combined response of partial or complete regression / incidence of progressive disease / complete regression of tumors: LGD1069 100 mg/kg orally daily added to tamoxifen 800 μg/kg sc daily, versus tamoxifen alone; for complete regression of tumors: p<0.05. Type of experiment: in vivo, Sprague-Dawley rats. As to the method:
(§1) Mammary tumorigenesis was induced by administration of 50 mg/kg of N-nitroso-N-methylurea (NMU) (Sigma, St. Louis, Mo.) to 50 day old virgin female Sprague-Dawley rats (Harlan-SD, Indianapolis, Ind.). […] Fresh solutions of NMU were injected within 30 minutes of preparation. The animals were injected in the tail vein with 5 mg NMU/100 g body weight. Rats were housed in a USDA registered facility in accordance with NIH guidelines for the care and use of laboratory animals. […] Beginning five weeks after tumor induction, animals were examined for tumors twice a week. Tumors were measured with electronic calipers (Mitushoyo, Japan) and cross sectional areas were determined by multiplying the longest length of the tumor by the greatest perpendicular width of the tumor.

Experiment [2] concerns estrogen receptor positive breast cancers. Conditions: patients, tamoxifen treatment; cited from earlier work.
The next experiment deals with primary mammary tumors. Briefly: Example 4: NMU-induced mammary tumors, submaximally efficacious doses alone and coadministered. The format is in vivo, Sprague-Dawley rats. Conditions: for primary mammary tumors regressed: single agent at submaximally efficacious dose: LGD1069 10 mg/kg, tamoxifen 150 mg/kg. On the procedure:
as §1

For experiment [3], the system named is established mammary tumors. Briefly: Example 3: established NMU-induced mammary tumors, six weeks of treatment. The format is in vivo, Sprague-Dawley rats. Conditions: for tumors completely regressed / tumors continued to progress / tumors partially regressed: LGD1069 100 mg/kg or tamoxifen 800 μg/kg. On the procedure: Mammary tumorigenesis was induced by administration of 50 mg/kg of N-nitroso-N-methylurea (NMU) (Sigma, St. Louis, Mo.) to 50 day old virgin female Sprague-Dawley rats (Harlan-SD, Indianapolis, Ind.). NMU was formulated as an aqueous solution of 10 mg/ml by wetting NMU powder with 3% acetic acid and dissolving it in sterile saline. Fresh solutions of NMU were injected within 30 minutes of preparation. The animals were injected in the tail vein with 5 mg NMU/100 g body weight. Rats were housed in a USDA registered facility in accordance with NIH guidelines for the care and use of laboratory animals. […] Beginning five weeks after tumor induction, animals were examined for tumors twice a week. Tumors were measured with electronic calipers (Mitushoyo, Japan) and cross sectional areas were determined by multiplying the longest length of the tumor by the greatest perpendicular width of the tumor.

Experiment [4] deals with tumors that grew in the presence of the low-dose tamoxifen. Briefly: Example 2: NMU-induced tumors that grew in the presence of low-dose tamoxifen. Conditions: LGD1069 100 mg/kg PO added to low-dose tamoxifen therapy, compared to treatment with tamoxifen (800 μg/kg SC).
Experiment [5] has as its system mammary carcinoma development. To be noted: NMU-treated rat, compared with tamoxifen; cited from earlier work.
A further experiment has as its target T1, RXRβ (UniProt P28704).
T1 sequence (P28704 1-520): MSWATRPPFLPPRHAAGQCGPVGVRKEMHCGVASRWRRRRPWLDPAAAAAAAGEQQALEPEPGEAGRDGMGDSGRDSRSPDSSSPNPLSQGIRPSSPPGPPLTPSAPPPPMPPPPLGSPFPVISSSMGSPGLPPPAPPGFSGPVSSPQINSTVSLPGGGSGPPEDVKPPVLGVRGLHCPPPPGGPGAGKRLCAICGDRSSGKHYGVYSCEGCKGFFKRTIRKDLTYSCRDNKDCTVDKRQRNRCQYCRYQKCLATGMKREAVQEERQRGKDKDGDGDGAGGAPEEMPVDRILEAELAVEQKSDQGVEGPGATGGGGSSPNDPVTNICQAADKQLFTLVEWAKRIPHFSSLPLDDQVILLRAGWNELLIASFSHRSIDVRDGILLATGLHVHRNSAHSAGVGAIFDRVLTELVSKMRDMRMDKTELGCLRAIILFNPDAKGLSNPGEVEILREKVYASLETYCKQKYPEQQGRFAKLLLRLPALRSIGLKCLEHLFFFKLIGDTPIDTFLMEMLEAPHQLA
Type of experiment: cell-based. The source says: Briefly, the co-transfection assay involves the introduction of two plasmids by transient transfection into a retinoid receptor-negative mammalian cell background. The first plasmid contains a retinoid receptor cDNA and directs constitutive expression of the encoded receptor. The second plasmid contains a cDNA that encodes for a readily quantifiable protein, e.g., firefly luciferase or chloramphenicol acetyl transferase (CAT), under control of a promoter containing a retinoid acid response element, which confers retinoid dependence on the transcription of the reporter. […] This assay can be used to accurately measure efficacy and potency of retinoic acid and synthetic retinoids as ligands that interact with the individual retinoid receptor subtypes.

Consider `CC/C(=C(\c1ccccc1)c1ccc(OCCN(C)C)cc1)c1ccccc1` [tamoxifen, reference compound], for which, in experiment [1], the “combined response of partial or complete regression” value was found to be 44%, the “incidence of progressive disease” value is listed as 44% and the “complete regression of tumors” value is given as 16.7%. The “estrogen receptor positive breast cancers that respond to treatment” value in experiment [2] was “approximately 66%”. In addition, the “primary mammary tumors regressed” value in the experiment on primary mammary tumors is reported as 5.6%. In addition, in experiment [3] (daily for six weeks), the tumors completely regressed is given as 33.3%, the “tumors continued to progress” value is 28.6% and the tumors partially regressed is given as 33.3%. The tumors remained static in experiment [3] (daily for six weeks, tamoxifen 800 μg/kg) turned out to be 4.8%.
Turning to `C=C(c1ccc(C(=O)O)cc1)c1cc2c(cc1C)C(C)(C)CCC2(C)C` [LGD1069], in experiment [1], the “combined response of partial or complete regression” value was “more than 90%”, the “incidence of progressive disease” value came out at 3% and the “complete regression of tumors” value is 56%. Besides, the “incidence of stable disease” value in experiment [1] (LGD1069 100 mg/kg orally daily added to tamoxifen, compared with tamoxifen alone) is on record as “reduced the incidence”. Besides, in experiment [4], the “amount of progressive disease” value was “significantly reduced the amount of progressive disease”. In addition, the “inhibiting mammary carcinoma development (chemopreventive)” value in experiment [5] is reported as “as effective as the anti-estrogen tamoxifen”. The tumors completely regressing in the experiment on primary mammary tumors (LGD1069 10 mg/kg coadministered with tamoxifen 150 mg/kg) is 26.3%. The “primary mammary tumors regressed” value in the experiment with primary mammary tumors amounted to 10.5%. Moreover, the “antitumor efficacy on established mammary tumors” value in experiment [3] (LGD1069 100 mg/kg daily for six weeks, compared with tamoxifen 800 μg/kg) is “greater efficacy than treatment with tamoxifen”. Further, in experiment [3] (daily for six weeks), the tumors completely regressed was 72.2%, the “tumors continued to progress” value was found to be 11.1% and the tumors partially regressed is 16.7%.
The compound `Cc1cc2c(cc1/C(=N/O)c1ccc(C(=O)O)cc1)C(C)(C)CCC2(C)C` [LDG100324] displayed an Efficacy on RXRβ of 51%. For the same compound, the EC50 on RXRβ (read-out: Potency) was 8 nM.
`CC1=C(/C=C/C(C)=C\C=C\C(C)=C\C(=O)O)C(C)(C)CCC1` [9-cis-retinoic acid, reference compound]: the Efficacy at RXRβ (RXRβ, co-transfection assay) is reported as 140%.
